How the values were obtained:
[1] = Solubility of the drug substance (general statement); assay type: physicochemical
mutant IDH1 = conditions: biochemical and cellular assays; cited from earlier work
mutant IDH2 = conditions: biochemical and cellular assays; cited from earlier work

solubility [1]: poorly soluble
Structure (SMILES): C[C@@H](Nc1nc(N[C@H](C)C(F)(F)F)nc(-c2cccc(Cl)n2)n1)C(F)(F)F [Compound 1, 6-(6-chloropyridin-2-yl)-N^2,N^4-bis((R)-1,1,1-trifluoropropan-2-yl)-1,3,5-triazine-2,4-diamine]
inhibitor of mutant IDH1 protein (mutant IDH1): inhibitor | inhibitor of mutant IDH2 protein (mutant IDH2): inhibitor
